“Also recorded” adds a separate entry of the source. Read-outs that look alike come from different tables or passages of the source.
Assays:
[1] = target: T1, human Hv1 channel (Homo sapiens, UniProt Q96D96); assay: Whole cell patch clamp recording of Hv1 proton currents in transfected HEK293T cells; type: cell-based; conditions: calculated as Ki=Koff/Kon, read-out: inhibition constant Ki for Hv1 channels
T1 construct: expressed in transfected cells; host or cells: HEK293T
T1 sequence (Q96D96 1-273): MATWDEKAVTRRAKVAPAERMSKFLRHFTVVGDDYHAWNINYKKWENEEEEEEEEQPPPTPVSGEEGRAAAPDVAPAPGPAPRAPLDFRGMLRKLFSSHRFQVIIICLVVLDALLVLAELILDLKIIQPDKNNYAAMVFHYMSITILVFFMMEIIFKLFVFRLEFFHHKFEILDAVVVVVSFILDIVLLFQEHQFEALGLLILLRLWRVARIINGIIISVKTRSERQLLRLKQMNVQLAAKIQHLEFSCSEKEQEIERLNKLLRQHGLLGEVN

[2] = target: T1, human Hv1 channel; assay: as above; type: cell-based; conditions: for V1/2 shift of G-V curve: Boltzmann fit; for pore blocker strength for Hv1 channel (in words): conclusion from patch clamp data
Source text: For conducting experiments, we used HEK293T cells. The HEK293T cells were purchased from American Type Culture Collection (ATCC). For cell culture, the HEK293T cells were maintained in ATTC's Dulbecco's Modified Eagle's Medium (DMEM) supplemented with a 10% fetal bovine serum (FBS 10%) and 1% penicillin and streptomycin. Plasmids were transfected into cells using a transfection reagent, Lipofectamine™ 2000 according to the manufacturer's instructions (Life Technologies). Experiments were performed 24-48 hours post-transfection.
For the experimental studies, similar techniques as utilized by Zhao et. al is used in this invention. (Zhao et al., Role of human Hv1 channels in sperm capacitation and white blood cell respiratory burst established by a designed peptide inhibitor, Proc Natl Acad Sci USA. 2018, PMID: 30478045, PMCID: PMC6294887).
In the present invention, a Whole Cell patch clamp technique was utilized to study the Hv1 proton currents. The proton currents passed by Hv1 were recorded in Whole Cell mode using an Axon™ Axopatch™ 200B microelectrode amplifier. Stimulation and data collection were performed by a high-resolution, low-noise digitizer, Digidata 1322A, manufactured by Axon Instruments, Inc.) and Axon™ pCLAMP™ 10 Electrophysiology Data Acquisition & Analysis Software (released by Molecular Devices). Cells were perfused with an external bath solution comprised of a zwitterionic sulfonic acid buffering agent (100 mM HEPES), 100 mM NaCl, and 10 mM glucose at pH 7.5. During the patch clamp recording, the patch pipettes with a resistance between 3 and 5 MΩ were filled with 100 mM Bis-Tris buffer, 100 mM NaCl, and 10 mM glucose at pH 6.0. The sampling frequency was 10 kHz and the signals were filtered at 1 KHz.
Fractional unblocked current was assessed at the end of the test pulse.
Dose-response curves (the time course for block and unblock of Hv1 as shown in FIG. 9) show the fractional unblocked current, Icompound/Icontrol, versus toxin concentration. The curves were fit to the Hill equation, Fun=(1+([compound]/Ki)h)−1), wherein the [compound] is the effective compound concentration, Fun is the fraction of unblocked current at equilibrium. Ki is the inhibition constant and h is the Hill coefficient.

[3] = 100 nM compound, at −20 mV, holding −60 mV

Ki [1] | V1/2 shift of G-V curve ([2]; 10 μM compound, shift to the left) | block of Hv1 current ([2]; 10 μM compound, at −20 mV, holding −60 mV) | pore blocker strength for Hv1 channel (in words) [2] | Ki ([1]; I-V plot, −20 mV) | time course of block (washin) ([2]; 100 nM applied to Hv1 channels) | V1/2 shift of G-V curve ([2]; 100 nM compound) | block of Hv1 channel current [2, 3] | time course of unblock (washout) ([2]; washed away with isotonic saline) | SMILES
3000 nM | ~15 mV | 20% | weak pore blocker | – | – | – | – | – | C=C[C@@H]1CS[C@H](c2ccccc2)N1C(=O)OC(C)(C)C [Original Compound, (2R,4R)-tert-butyl 2Phenyl-4-vinylthiazolidine-3-carboxylate]
– | – | – | strong nano-molar pore blocker | 20 nM | – | about 35 mV | 85% | – | O=C(O)[C@@H]1CS[C@H](c2ccccc2)N1 [S2, (2R,4R)-2-phenylthiazolidine-4-carboxylic acid]

SMILES | Ki [1] | V1/2 shift of G-V curve ([2]; 10 μM compound, shift to the left) | block of Hv1 current ([2]; 10 μM compound, at −20 mV, holding −60 mV) | pore blocker strength for Hv1 channel (in words) [2] | Ki ([1]; I-V plot, −20 mV) | time course of block (washin) ([2]; 100 nM applied to Hv1 channels) | V1/2 shift of G-V curve ([2]; 100 nM compound) | block of Hv1 channel current [2, 3] | time course of unblock (washout) ([2]; washed away with isotonic saline)
CC(C)(C)OC(=O)N1[C@H](CO)CS[C@@H]1c1ccccc1 [S1, (2R,4R)-tert-butyl 4-(hydroxymethyl)-2-Phenylthiazolidine-3-carboxylate] | – | – | – | strong nano-molar pore blocker; also recorded: relatively strong pore blocker | 3 nM | blocks the channel current immediately | about 41 mV | 92% | the current resumes

From patent publication US20250333389A1, “PHARMACEUTICAL FOR THE INHIBITION OF CELLULAR PROTON PUMPS” (AquaRemedi Pharmaceuticals INC, priority 2024, published 2025)
